The values that follow come from the kinase profiling compilation of Christmann-Franck et al. (2016).

In assay [1] the target is ARAF (human) (UniProt P10398).
Assay [2] has as its target ATM (human) (UniProt Q13315).
Assay [3] deals with CDK10 (human) (UniProt Q15131).
In assay [4] the target is PRKDC (human) (UniProt P78527).
The target of assay [5] is SGK223 (human) (UniProt Q86YV5).
The target in assay [6] is CDKL2 (human) (UniProt Q92772).
The target in assay [7] is LRRK2 (human) (UniProt Q5S007).
The target in assay [8] is PIK3C2B (human) (UniProt O00750).
Assay [9] has as its target TESK2 (human) (UniProt Q96S53).

Where only a bound is given, the exact number is not on record here.

PRKDC (human), sequence (P78527 whole entry, looked up): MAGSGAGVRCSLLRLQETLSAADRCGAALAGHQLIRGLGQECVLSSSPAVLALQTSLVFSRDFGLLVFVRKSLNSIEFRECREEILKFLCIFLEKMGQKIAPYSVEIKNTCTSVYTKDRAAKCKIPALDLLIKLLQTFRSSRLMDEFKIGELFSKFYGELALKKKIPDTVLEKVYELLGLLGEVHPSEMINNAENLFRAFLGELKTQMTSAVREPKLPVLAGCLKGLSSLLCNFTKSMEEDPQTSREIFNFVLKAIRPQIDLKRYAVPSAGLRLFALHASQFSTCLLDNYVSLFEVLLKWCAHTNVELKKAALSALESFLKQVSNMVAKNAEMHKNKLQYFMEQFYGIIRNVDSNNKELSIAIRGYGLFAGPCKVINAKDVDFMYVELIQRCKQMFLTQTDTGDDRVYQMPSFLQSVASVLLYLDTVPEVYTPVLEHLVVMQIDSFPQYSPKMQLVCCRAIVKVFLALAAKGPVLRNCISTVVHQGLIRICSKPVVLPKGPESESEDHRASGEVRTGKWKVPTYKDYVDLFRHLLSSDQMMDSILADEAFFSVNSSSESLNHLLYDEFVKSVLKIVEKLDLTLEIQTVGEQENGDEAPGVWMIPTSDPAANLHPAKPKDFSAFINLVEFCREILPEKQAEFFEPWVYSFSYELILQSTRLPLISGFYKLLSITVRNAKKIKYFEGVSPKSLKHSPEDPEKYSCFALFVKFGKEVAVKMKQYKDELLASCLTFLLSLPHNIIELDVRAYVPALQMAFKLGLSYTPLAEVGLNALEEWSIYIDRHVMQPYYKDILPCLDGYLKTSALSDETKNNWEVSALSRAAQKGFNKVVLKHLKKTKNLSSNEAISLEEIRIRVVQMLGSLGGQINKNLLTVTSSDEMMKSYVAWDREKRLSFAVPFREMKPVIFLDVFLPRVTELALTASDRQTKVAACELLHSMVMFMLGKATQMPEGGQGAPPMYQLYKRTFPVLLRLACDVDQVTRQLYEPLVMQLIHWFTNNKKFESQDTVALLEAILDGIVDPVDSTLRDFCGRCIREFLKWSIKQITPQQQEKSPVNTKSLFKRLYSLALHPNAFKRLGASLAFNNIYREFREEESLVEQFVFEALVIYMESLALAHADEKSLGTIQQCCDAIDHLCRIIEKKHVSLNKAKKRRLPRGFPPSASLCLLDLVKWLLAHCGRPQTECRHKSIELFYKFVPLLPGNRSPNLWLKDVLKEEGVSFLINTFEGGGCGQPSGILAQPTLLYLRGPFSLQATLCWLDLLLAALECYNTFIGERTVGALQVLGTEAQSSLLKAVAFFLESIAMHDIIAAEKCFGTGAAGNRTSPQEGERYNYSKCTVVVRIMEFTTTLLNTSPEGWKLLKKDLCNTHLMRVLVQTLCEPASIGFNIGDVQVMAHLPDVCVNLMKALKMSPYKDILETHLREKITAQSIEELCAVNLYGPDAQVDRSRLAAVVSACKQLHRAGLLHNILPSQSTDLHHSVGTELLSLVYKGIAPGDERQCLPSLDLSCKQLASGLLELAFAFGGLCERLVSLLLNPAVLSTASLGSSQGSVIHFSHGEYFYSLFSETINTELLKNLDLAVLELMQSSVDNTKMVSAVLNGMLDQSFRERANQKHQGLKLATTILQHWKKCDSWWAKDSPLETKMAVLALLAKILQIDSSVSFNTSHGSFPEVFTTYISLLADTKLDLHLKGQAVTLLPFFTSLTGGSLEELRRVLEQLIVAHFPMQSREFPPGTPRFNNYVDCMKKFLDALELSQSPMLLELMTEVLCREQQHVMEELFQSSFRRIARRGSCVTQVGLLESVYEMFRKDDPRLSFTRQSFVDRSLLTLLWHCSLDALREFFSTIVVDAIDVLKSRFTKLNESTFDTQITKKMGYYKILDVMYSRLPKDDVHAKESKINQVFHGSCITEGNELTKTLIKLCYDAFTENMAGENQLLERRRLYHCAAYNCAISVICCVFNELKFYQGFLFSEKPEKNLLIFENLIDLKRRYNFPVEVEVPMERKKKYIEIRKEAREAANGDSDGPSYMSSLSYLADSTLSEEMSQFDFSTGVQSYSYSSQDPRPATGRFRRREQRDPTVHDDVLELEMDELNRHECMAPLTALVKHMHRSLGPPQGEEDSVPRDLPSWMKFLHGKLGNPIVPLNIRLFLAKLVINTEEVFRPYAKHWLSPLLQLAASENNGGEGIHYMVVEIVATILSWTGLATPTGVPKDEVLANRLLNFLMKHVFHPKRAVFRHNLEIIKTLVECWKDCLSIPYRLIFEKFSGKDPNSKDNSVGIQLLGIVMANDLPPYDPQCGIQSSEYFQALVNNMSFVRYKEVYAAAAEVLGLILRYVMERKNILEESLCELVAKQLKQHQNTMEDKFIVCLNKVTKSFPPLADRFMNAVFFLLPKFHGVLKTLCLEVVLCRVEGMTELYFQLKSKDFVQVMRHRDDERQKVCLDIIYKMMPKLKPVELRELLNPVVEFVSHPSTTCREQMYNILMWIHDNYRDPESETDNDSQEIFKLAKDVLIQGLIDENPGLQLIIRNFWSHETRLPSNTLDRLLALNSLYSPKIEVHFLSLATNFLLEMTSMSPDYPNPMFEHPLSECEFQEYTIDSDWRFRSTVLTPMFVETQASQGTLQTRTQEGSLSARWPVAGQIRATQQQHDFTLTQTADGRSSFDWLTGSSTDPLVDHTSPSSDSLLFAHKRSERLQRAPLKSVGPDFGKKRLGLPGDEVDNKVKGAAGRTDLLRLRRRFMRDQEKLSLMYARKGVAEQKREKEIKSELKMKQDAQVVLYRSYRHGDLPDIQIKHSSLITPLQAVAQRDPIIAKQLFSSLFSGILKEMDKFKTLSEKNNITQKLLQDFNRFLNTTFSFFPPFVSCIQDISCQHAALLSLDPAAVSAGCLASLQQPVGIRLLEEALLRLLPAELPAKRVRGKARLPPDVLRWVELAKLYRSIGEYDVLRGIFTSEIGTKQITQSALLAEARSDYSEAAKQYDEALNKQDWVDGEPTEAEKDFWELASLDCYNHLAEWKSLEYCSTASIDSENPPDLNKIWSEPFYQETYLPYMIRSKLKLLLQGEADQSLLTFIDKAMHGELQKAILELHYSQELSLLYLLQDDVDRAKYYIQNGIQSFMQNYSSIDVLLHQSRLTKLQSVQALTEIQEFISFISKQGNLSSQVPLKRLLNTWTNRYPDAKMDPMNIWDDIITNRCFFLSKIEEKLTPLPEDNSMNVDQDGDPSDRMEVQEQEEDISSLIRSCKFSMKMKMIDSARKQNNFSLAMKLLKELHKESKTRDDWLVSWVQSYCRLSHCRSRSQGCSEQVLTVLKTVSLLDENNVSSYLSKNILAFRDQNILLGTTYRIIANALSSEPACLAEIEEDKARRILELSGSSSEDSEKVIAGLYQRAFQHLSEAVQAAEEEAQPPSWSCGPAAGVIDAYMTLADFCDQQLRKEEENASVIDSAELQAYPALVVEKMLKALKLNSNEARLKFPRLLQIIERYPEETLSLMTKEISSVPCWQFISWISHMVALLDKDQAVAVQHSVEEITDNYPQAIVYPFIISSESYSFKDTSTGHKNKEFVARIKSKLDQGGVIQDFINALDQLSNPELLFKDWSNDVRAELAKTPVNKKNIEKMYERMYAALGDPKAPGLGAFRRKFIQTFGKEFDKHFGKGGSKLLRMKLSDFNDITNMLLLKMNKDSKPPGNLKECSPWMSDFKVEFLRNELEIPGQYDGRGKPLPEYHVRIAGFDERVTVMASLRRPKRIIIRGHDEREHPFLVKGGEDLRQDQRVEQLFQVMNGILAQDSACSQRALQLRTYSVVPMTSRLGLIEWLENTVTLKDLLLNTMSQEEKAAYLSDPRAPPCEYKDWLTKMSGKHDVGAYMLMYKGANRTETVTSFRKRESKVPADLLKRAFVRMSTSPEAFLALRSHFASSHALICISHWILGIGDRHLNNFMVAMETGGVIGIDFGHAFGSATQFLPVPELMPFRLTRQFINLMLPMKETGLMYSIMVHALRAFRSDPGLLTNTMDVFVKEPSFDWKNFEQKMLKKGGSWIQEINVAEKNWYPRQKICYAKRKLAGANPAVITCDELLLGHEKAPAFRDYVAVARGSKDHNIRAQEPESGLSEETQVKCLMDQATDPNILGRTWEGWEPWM
TESK2 (human), sequence (Q96S53 whole entry, looked up): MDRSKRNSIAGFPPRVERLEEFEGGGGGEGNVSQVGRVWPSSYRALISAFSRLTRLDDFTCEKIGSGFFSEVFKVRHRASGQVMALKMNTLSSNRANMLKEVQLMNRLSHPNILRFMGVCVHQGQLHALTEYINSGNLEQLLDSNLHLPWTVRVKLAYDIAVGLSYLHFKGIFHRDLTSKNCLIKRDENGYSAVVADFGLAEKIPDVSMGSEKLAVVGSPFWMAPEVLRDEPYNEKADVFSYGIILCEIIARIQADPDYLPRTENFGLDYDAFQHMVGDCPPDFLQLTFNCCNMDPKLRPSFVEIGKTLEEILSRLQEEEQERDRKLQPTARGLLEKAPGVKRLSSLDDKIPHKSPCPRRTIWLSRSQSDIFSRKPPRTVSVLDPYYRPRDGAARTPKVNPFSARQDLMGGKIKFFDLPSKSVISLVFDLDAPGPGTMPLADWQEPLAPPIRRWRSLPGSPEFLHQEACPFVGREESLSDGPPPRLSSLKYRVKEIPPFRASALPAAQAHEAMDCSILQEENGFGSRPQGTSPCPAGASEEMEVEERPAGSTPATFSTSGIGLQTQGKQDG
CDK10 (human), sequence (Q15131 whole entry, looked up): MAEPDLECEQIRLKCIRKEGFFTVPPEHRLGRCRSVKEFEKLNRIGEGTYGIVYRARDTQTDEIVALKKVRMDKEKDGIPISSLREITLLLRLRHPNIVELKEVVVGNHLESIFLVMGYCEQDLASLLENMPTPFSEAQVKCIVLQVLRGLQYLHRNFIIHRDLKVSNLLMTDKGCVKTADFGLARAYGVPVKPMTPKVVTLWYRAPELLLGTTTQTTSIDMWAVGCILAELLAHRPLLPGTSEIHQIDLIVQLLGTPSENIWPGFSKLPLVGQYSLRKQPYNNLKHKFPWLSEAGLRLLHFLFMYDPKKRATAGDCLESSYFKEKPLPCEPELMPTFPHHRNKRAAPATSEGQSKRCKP

With `CN[C@@H]1C[C@H]2O[C@@](C)([C@@H]1OC)n1c3ccccc3c3c4c(c5c6ccccc6n2c5c31)C(=O)NC4`, the IC50 in assay [1] was above 10 µM; in assay [2], above 10 µM; in assay [3], 0.87 µM; in assay [4], above 10 µM; in assay [5], 5.05 µM.
With `CC[C@@H](CO)Nc1nc(NCc2ccccc2)c2ncn(C(C)C)c2n1`, the IC50 in assay [2], in assay [6], in [7], in assay [8], in [4] and in [5] was above 10 µM each time.
For `CC(C)(C)c1cnc(CSc2cnc(NC(=O)C3CCNCC3)s2)o1`, the IC50 in assay [2], in assay [4] and in assay [9] was above 10 µM in each case.
